Experiments:
[1] = test system: BMDM; experiment: BMDM migration towards MCP-1 (xCelligence); format: cell-based, mouse; conditions: CoCl2-treated vs control macrophages
Description: Macrophage chemotaxis was measured using the Real-Time Cell Invasion and Migration xCelligence Assay System with monitoring every 3 min (Roche Applied Science). BMDM migration towards MCP-1 (100 ng/ml; R&D Systems) was measured in the presence or absence of oxLDL (50 μg/ml) and/or recombinant rat UNC5b-Fc chimera (1006-UN; R&D Systems) to block the effects of netrin-1. In a subset of experiments, cells were pre-treated with 0.1 mmol/L CoCl2 for 1 h prior to migration. J774 macrophage migration was carried out in the presence or absence of UNC5b-Fc chimera. Results of chemotaxis assays are representative of at least three independent experiments performed on triplicate samples.

[2] = test system: BMDMs; experiment: qPCR of Sema3e mRNA in macrophages; format: cell-based, mouse; conditions: BMDM, CoCl2
Description: Total RNA was isolated from cells using TRIzol Reagent (Invitrogen). RNA (1 μg) was reverse-transcribed with an iScript cDNA Synthesis kit according to the manufacturer's instructions (Bio-Rad). KAPA SYBR FAST qPCR Master Mix was used for RT-PCR analysis. Primers used are listed in supplemental Table I. The change in mRNA expression was calculated by the comparative change in cycle method (ΔΔCT). All data were normalized to GAPDH or 28S and were expressed as fold change over the control.
RAW264.7 cells were obtained from American Type Culture Collection. Peritoneal macrophages (pMø) were collected from mice by peritoneal lavage 4 d after intraperitoneal injection of 3% (wt/vol) thioglycollate as previously described (Kunjathoor, et al., J Biol Chem., 2002, 277:49982-49988). Bone marrow derived macrophages (BMDMs) were prepared from mice as previously described (Kunjathoor, et al., J Biol Chem., 2002, 277:49982-49988). For gene expression experiments, macrophages were plated at 1×10^6 cells/well in 6 well plates. CoCl2 (0.1M solution) was obtained from Sigma and used at the concentrations indicated to mimic hypoxia. Oxidation or acetylation of LDL (50 μg/mL; Biomedical Technologies) was performed as described (Kunjathoor, et al., J Biol Chem., 2002, 277:49982-49988). Recombinant IL-4 and IFN-γ were purchased from PeproTech. Ultrapure LPS from E. coli K12 was purchased from InvivoGen.

[3] = test system: BMDM; experiment: qRT-PCR of BMDM (palmitate, cytokines, adipocyte conditioned media); format: cell-based, mouse; conditions: BMDMs, palmitate conjugated to BSA
Description: (§1) Real-time Quantitative RT-PCR Analysis RNA (0.5-1 μg) was reverse transcribed using iScript™ cDNA Synthesis Kit (Biorad) and RT-PCR analysis was conducted using kapa SYBR green Supermix (kappa syber) and a Mastercycler Realplex (Eppendorf) the primers used are listed. Fold change in mRNA expression was calculated using the comparative cycle method (ΔΔCt).
(§2) Cell culture. Primary bone marrow derived macrophage (BMDM) was prepared by flushing the bone marrow of the tibia and femur of 6-8 week old C57/B6 mice. The cells were grown in DMEM supplemented with 15% L929-conditioned media, 10% FBS and 1% penicillin/streptomycin for 7 days. BMDM were stimulated 250 pM palmitate conjugated with BSA or BSA as a control for 24 hours, or TNFα (10 ng/ml, 410-MT-010; R&D systems), IL-6 (40 nglml, 406-ML-005; R&D systems) and IL-4 (1 Onglml, 404-ML-010; R&D systems) for 24 h. In some assays, differentiated BMDM were treated with conditioned media from 3T3-L1 adipocytes differentiated as described (Lin, et al., J Biol Chem, 2005; 280:4617-4626) and treated with 250 pM palmitate conjugated with BSA or BSA for 24 hours. In certain experiments, anti-TNFα (0.4 μg/ml, AF-410-NA, R&D systems) or anti-IL-6 (0.025 μg/ml, MAB406; R&D systems) blocking antibody or IgG control (Normal Goat IgG: AB-108-C, Rat IgG1: MAB005; R&D systems) was added to conditioned media. Peritoneal macrophages were isolated as described (van Gils, et al., Nat Immunol, 2012; 13:136-143). Mice were injected intraperitoneally with 1 ml of 3% (wt/vol) thioglycolate to elicit sterile sterile peritonitis with macrophage numbers peaking on day 4. Cells were collected by lavage and used for migration assays.
Palmitate-BSA preparation. Sodium palmitate (P9767; Sigma Aldrich) was dissolved in sterile water in to make a 100-mM solution by alternating heating and vortexing until the palmitate was dissolved. Thu occurred once the solution reached 70 C. […]

[4] = test system: human NTNI promoter-luciferase reporter; experiment: NTN1 promoter-luciferase assay (Example 4); format: cell-based; conditions: HEK293 cells
Description: (§3) Promoter-Luciferase assays. HEK293T cells were transfected with human NTNI or Unc5H2 promoter-luciferase reporter constructs (SwitchGear Genomics) using Lipofectamine™ 2000 (11668-019, Invitrogen) After transfection, media was changed and cells were treated with palmitate or BSA for 24 hours, in the presence or absence of the NFkB inhibitor BAY 11-7082 (10 μmol/L). Luciferase activity was measured using the DUAL-Glo Luciferase Assay system (E1910, Promega).

[5] = test system: human Unc5H2 promoter-luciferase reporter; experiment: Unc5H2 promoter-luciferase assay (Example 4); format: cell-based; conditions: HEK293 cells
Description: as §3

[6] = test system: BMDM; experiment: netrin-1 ELISA of BMDM supernatants; format: cell-based, mouse
Description: as §2, with “Peritoneal macrophages were isolated as described (van Gils, et al., Nat Immunol, 2012; 13:136-143). Mice were injected intraperitoneally with 1 ml of 3% (wt/vol) thioglycolate to elicit sterile sterile peritonitis with macrophage numbers peaking on day 4. Cells were collected by lavage and used for migration assays.” left out
ELISA assay. Insulin (90080; crystal Chem Inc), adiponectin (ab108785; Abeam), FFA (SFA-1; Zen Bio), TNFa (88-7064-76; ebiosciences) and netrin-1 (E91827Mu; USCN life science Inc) levels were measured in the serum using mouse standards according to manufacturer's guidelines. Netrin-1 in human serum was measured using a human-specific netrin-1 ELISA from USCN Life Science Inc (700176; mybiosource).

[7] = test system: 3T3L1 adipocytes; experiment: qRT-PCR of 3T3L1 adipocytes; format: cell-based; conditions: palmitate treatment
Description: as §1
as §2, with “Peritoneal macrophages were isolated as described (van Gils, et al., Nat Immunol, 2012; 13:136-143). Mice were injected intraperitoneally with 1 ml of 3% (wt/vol) thioglycolate to elicit sterile sterile peritonitis with macrophage numbers peaking on day 4. Cells were collected by lavage and used for migration assays.” left out

[8] = test system: peritoneal macrophages; experiment: Migration of palmitate-treated peritoneal macrophages to CCL19; format: cell-based, mouse; conditions: treatment with palmitate
Description: as §2, with “Mice were injected intraperitoneally with 1 ml of 3% (wt/vol) thioglycolate to elicit sterile sterile peritonitis with macrophage numbers peaking on day 4. Cells were collected by lavage and used for migration assays.” left out
Migration. The migration of ATM or peritoneal macrophages to CCL19 (500 ng/ml; R&D Systems) was assessed by the xCelligence Real-time Cell Invasion and Migration system (ACEA biosciences Inc) that monitored chemotaxis every 5 minutes for over 6 h. […]

## [Cl][Co][Cl] [CoCl2, Cobalt chloride]
[1]
  ability of BMDM to migrate to MCP-1: strongly impaired
[2]
  macrophage Sema3e mRNA increase: 5 fold

## CCCCCCCCCCCCCCCC(=O)[O-].[Na+] [palmitate, Sodium palmitate]
[3]
  increase in Ntn1 mRNA: 5 fold
  increase in Unc5b mRNA: 3 fold
[4]
  activity of Ntn1-promoter luciferase reporter: induced the activity
[5]
  activity of Unc5b-promoter luciferase reporter: induced the activity
[6]
  secretion of netrin-1 by BMDM (ELISA): induced secretion
[7]
  Tnfa and Il6 mRNA in adipocytes: induced expression
[8]
  migration of peritoneal macrophages to CCL19: blocked the migration

Source: patent US20210113687A1, “METHODS FOR TREATING INFLAMMATION” (NEW YORK UNIVERSITY, priority 2013, published 2021)
